# Test results published in US6638910B2, “Compositions and methods for controlling plant pests” (priority 1997, dated 2003).
# Read-outs that look alike come from different tables or passages of the source. Starred links: 1 amine or outer side, 2 acyl side, 3 side chain; linkers in the order of their positions; H or OH if unused. Positions of bridges follow the written chain, without caps; N, C: chain ends. Non-standard residues stand in square brackets, D forms with d. Residues, ends and D or L forms follow the SMILES beside them. X1 = CC(C)CCCCCCCCC[C@H](CC(=O)[*:1])O[*:2]
# Experiments:
# Rhizoctonia solani = assay: Greenhouse test, Sheath Blight on Rice; assay type: in vivo
# Plasmopara viticola = assay: Greenhouse test, grape downy mildew; conditions: Chardonnay grape
# Phytophthora infestans = assay type: in vivo; conditions: Tomato
# Uncinula necator = assay: Greenhouse test, Powdery Mildew on Grape; assay type: in vivo
# Pyricularia oryzae = assay type: in vivo; conditions: Rice
# Botrytis cinerea = assay: Greenhouse test, Gray Mold on Pepper; assay type: in vivo
# E. graminis = assay: Greenhouse test, Powdery Mildew on Wheat; assay type: in vivo, Erysiphe graminis f. sp. graminis
# [1] = system: N2 strain of the nematode Caenorhabditis elegans; assay: 96-well microplate nematicidal assay, score rating; assay type: in vivo; conditions: Table 16; score 1 (all dead or stunted) to 4 (no dead)
# [2] = system: pre-adult beet armyworms (Spodoptera exigua); assay: 96-well microplate insecticidal assay, score rating; assay type: in vivo; conditions: Table 16; score 1 (all dead or stunted) to 4 (no dead)
# Description: (§1) Bacillus samples were grown in a Bacillus culture media. […] One day old streaked cultures were used to inoculate 250 mL baffled shake flasks. Flasks were shaken at 200 rpm at 29° C. for 5 days. To assay insecticidal activity, 35 mL of culture broth were centrifuged at 5,200 rpm for 20 minutes and the supernatant used in microassay described below. Assays were performed in 96-well microplates. […] To assay insecticidal activity, an agar substrate was prepared for the wells of the microplate according to Marrone et al. (1985), J. Econ. Entomol. 78: 290-293. […] Deionized water was used as a negative control. Two replicates of test sample or control were used for each assay. 40 μL of supernatant sample or whole broth grown in medium 1, 2 or 3 were dispensed into each sample well. Plates were then placed in a fume hood to dry for approximately 2-3 hours until the agar solution was dried. […] The microplate was sealed with an airtight substance such as Mylar®, and each well ventilated with a pin press. The plates were incubated at 27° C. for up to 7 days. After incubation, wells were scored by noting neonate mortality or the degree of larval development. […] Scores were averaged among replicates within each sample. […] It contained the same ingredients as medium 3 without proflo cotton seed extract. All other procedures were the same as above. The test was repeated two or three times.
# [3] = system: pre-adult corn rootworms (Diabrotica undecimpunctata); assay: as above; assay type: in vivo; conditions: Table 16; score 1 (all dead or stunted) to 4 (no dead)
# Description: as §1
# [4] = system: fungi including Penicillium chrysogenum; conditions: Peypoux et al. (1978) Tetrahedron 34:1147-1152; cited from earlier work
# Saccharomyces cerevesiae = conditions: Beeson et al. (1979) J. Antibiotics 32(8):828-833; cited from earlier work
molecule,measurement,setting,value
CCCCNC(=O)n1c(NC(=O)OC)nc2ccccc21 [Benomyl],"percent disease control, R. solani",Rhizoctonia solani; 40 ppm,77%
same,"percent disease control, R. solani",Rhizoctonia solani; 100 ppm,100%
COCC(=O)N(c1c(C)cccc1C)C(C)C(=O)OC (stereo not shown) [Metalaxyl],percent disease control,Plasmopara viticola; 1 ppm,80% control
same,percent disease control,Plasmopara viticola; 10 ppm,98.3% control
same,percent disease control,Plasmopara viticola; 30 ppm,100% control
same,"percent disease control, P. infestans",Phytophthora infestans; 10 ppm,77%
same,"percent disease control, P. infestans",Phytophthora infestans; 30 ppm,100%
CCCCC(C#N)(Cn1cncn1)c1ccc(Cl)cc1 (stereo not shown) [Myclobutanil],"percent disease control, U. necator",Uncinula necator; 10 ppm,100%
same,"percent disease control, U. necator",Uncinula necator; 30 ppm,100%
O=C(Nc1ccccc1)N(Cc1ccc(Cl)cc1)C1CCCC1 [Pencycuron],"percent disease control, P. oryzae",Pyricularia oryzae; 10 ppm,100%
same,"percent disease control, P. oryzae",Pyricularia oryzae; 50 ppm,100%
CCCC1COC(Cn2cncn2)(c2ccc(Cl)cc2Cl)O1 (stereo not shown) [Propiconazole],"percent disease control, B. cinerea",Botrytis cinerea; 5 ppm,57%
same,"percent disease control, B. cinerea",Botrytis cinerea; 10 ppm,87%
same,"percent disease control, E. graminis",E. graminis; 0.2 ppm,54%
same,"percent disease control, E. graminis",E. graminis; 0.5 ppm,100%
CC(C)CCCCCCCCC[C@@H]1CC(=O)N[C@@H](CCC(=O)O)C(=O)N[C@@H](CC(C)C)C(=O)N[C@H](CC(C)C)C(=O)N[C@@H](C(C)C)C(=O)N[C@@H](CC(=O)O)C(=O)N[C@H](CC(C)C)C(=O)N[C@@H](CC(C)C)C(=O)O1 [Surfactin] (EL[dL]VD[dL]L; linker N-C via X1),"Activity score, C. Elegans",[1],4.0
same,"Activity score, Beet armyworm",[2],4.0
same,"Activity score, Corn rootworm",[3],2.0
Iturin-C,activity against fungi,[4],inactive
bacillomycin L,LC50,Saccharomyces cerevesiae,30 µg/mL
iturin-A,LC50,Saccharomyces cerevesiae,30 µg/mL
mycosubtilin,LC50,Saccharomyces cerevesiae,10 µg/mL
